Experimental findings from patent US12617812B2, “Platinum(IV) complexes, methods of manufacture, compositions containing, and methods of use thereof” (City University of Hong Kong, priority 2021, dated 2026) are described below.

Usually IC50 stands for the concentration at which inhibition is half-maximal. A lower IC50 goes with higher potency.

Assay [1] relates to Human ovarian carcinoma A2780 cells. Nature of the assay: MTT cytotoxicity test, A2780 cells. Type of assay: cell-based. The conditions noted are these: 6 h treatment. As for the experimental part:
(§1) Human lung carcinoma A549 cells (American Type Culture Collection, ATCC), and cisplatin-resistant A549cisR cells (American Type Culture Collection, ATCC) are cultured in DMEM with 10% FBS and 100 µg/mL penicillin/streptomycin. Human ovarian carcinoma A2780 and cisplatin-resistant A2780cisR cells are cultured in RPMI-1640 with 10% FBS, 1% L-Glutamine, and 100 µg/mL penicillin/streptomycin. Human lung fibroblast MRC-5 cells (American Type Culture Collection, ATCC) are cultured in MEM with 10% FBS, 1% NEAA, 1% L-Glutamine, 1% sodium pyruvate, and 100 µg/mL penicillin/streptomycin. For A2780cisR and A549cisR cells, 2 μM of cisplatin is added into the culture medium after the attachment to maintain the resistance. All the cells are cultured at 37° C. in 5% CO2.
(§2) The cytotoxic profiles of the various complexes against selected cell lines are obtained by a 3-(4,5-Dimethylthiazol-2-yl)-2,5-diphenyltetrazolium bromide (MTT) assay. Cells are seeded into 96-well plates at a density of 2,500 cells per well (for A549, and A2780) or 5,000 cells per well (for A549cisR, A2780cisR, and MRC-5) and incubated for 24 h. Cells are then treated with medium containing various concentrations of complexes for 6 h. The medium is replaced by phenol-red free medium. Then cells are irradiated with near-infrared radiation (880 nm, 0.4 W/cm^2) for 80 min. After irradiation, cells are further incubated in fresh medium for 18 h at 37° C. Then, the culture medium is removed, cells are then incubated with FBS free medium containing 1 mg/mL MTT for 2 h. Medium containing MTT is removed and 150 μL DMSO is added to each well. The absorbance is measured at 570 and 630 nm. […]
On the technique in general: Formazan colour is commonly taken as a measure of viable cells.

Assay [2] relates to cisplatin-resistant A2780cisR cells. Put plainly: MTT cytotoxicity test, A2780cisR cells. Type of assay: cell-based, Human. As to conditions: 6 h treatment. As for the experimental part:
as §1, §2

For assay [3], the system named is Human lung carcinoma A549 cells. Put plainly: MTT cytotoxicity test, A549 cells. Type of assay: cell-based. As to conditions: 6 h treatment. How it is done:
as §1, §2

The subject of assay [4] is cisplatin-resistant A549cisR cells. Put plainly: MTT cytotoxicity test, A549cisR cells. It is filed as cell-based, Human. The conditions noted are these: 6 h treatment. How it is done:
as §1, §2

In assay [5] the test system is Human lung fibroblast MRC-5 cells. Put plainly: MTT cytotoxicity test, MRC-5 cells. Type of assay: cell-based. The conditions noted are these: in the dark with no irradiation, 6 h treatment. How it is done:
as §1
The cytotoxic profiles of the various complexes against selected cell lines are obtained by a 3-(4,5-Dimethylthiazol-2-yl)-2,5-diphenyltetrazolium bromide (MTT) assay. Cells are seeded into 96-well plates at a density of 2,500 cells per well (for A549, and A2780) or 5,000 cells per well (for A549cisR, A2780cisR, and MRC-5) and incubated for 24 h. Cells are then treated with medium containing various concentrations of complexes for 6 h. The medium is replaced by phenol-red free medium. Then cells are irradiated with near-infrared radiation (880 nm, 0.4 W/cm^2) for 80 min. After irradiation, cells are further incubated in fresh medium for 18 h at 37° C. Then, the culture medium is removed, cells are then incubated with FBS free medium containing 1 mg/mL MTT for 2 h. Medium containing MTT is removed and 150 μL DMSO is added to each well. The absorbance is measured at 570 and 630 nm.
Cells are treated with the indicated complex for 6 h, the culture medium is replaced with fresh medium and irradiated with or without blue light for 1 h. Then cells are cultured for another 42 h.

Setting [6] is: in the dark with no irradiation.
Where [7] appears, read: mark * (dark), position of the irradiated row.
The mark [8] stands for this setting: A2780cisR*, in the dark with no irradiation.
Where [9] appears, read: A549*, in the dark with no irradiation.
[10] abbreviates: A549cisR*, in the dark with no irradiation.

Consider `O=C1[O][Pt]2([NH][C@@H]3CCCC[C@H]3[NH]2)[O]C1=O` [Oxaliplatin, reference compound], for which the IC50 came out at 86.5 ± 7.7 µM in assay [1] (setting [6]); 73.7 ± 5.9 µM in assay [1] (setting [7]); 254 ± 18.2 µM in assay [2] (A2780cisR**, with irradiation); 250 ± 12.6 µM in assay [2] (setting [8]); 104 ± 8.2 µM in assay [3] (A549**, with irradiation); 97.2 ± 7.5 µM in assay [3] (setting [9]). In addition, the IC50 in assay [4] (A549cisR**, with irradiation) came out at 269 ± 16.3 µM; in assay [4] (setting [10]) it was 258 ± 11.6 µM; in assay [5], 213 ± 16.4 µM.

Turning to `N.N.O=C([O-])C1(C(=O)[O-])CCC1.[Pt+2]` [Carboplatin, reference compound], the IC50 in assay [1] (setting [6]) was 303 ± 34.8 µM; in assay [1] (setting [7]), 336 ± 43.8 µM; in assay [2] (A2780cisR**, with irradiation) it was 630 ± 43.2 µM; in assay [2] (setting [8]) it was 668 ± 51.1 µM; in assay [3] (A549**, with irradiation) it was 435 ± 42.9 µM; in assay [3] (setting [9]) it was 418 ± 33.6 µM. In addition, the IC50 in assay [4] (A549cisR**, with irradiation) is more than 700 µM; in assay [4] (setting [10]), more than 700 µM; in assay [5], 690 ± 38.5 µM.

For `CCN(CC)c1ccc2cc(C(=O)/C=C/c3ccc(N(C)CCC(=O)[O][Pt]4([NH2])([NH2])([OH])[O]C(=O)C5(CCC5)C(=O)[O]4)cc3)c(=O)oc2c1` [Complex 4], the IC50 was more than 50 µM in assay [1] (setting [6]); 10.7 ± 2.2 µM in assay [1] (setting [7]); 11.2 ± 2.8 µM in assay [2] (A2780cisR**, with irradiation); more than 50 µM in assay [2] (setting [8]); 17.7 ± 5.1 µM in assay [3] (A549**, with irradiation); more than 50 µM in assay [3] (setting [9]). Also, the IC50 was 18.9 ± 4.3 µM in assay [4] (A549cisR**, with irradiation); more than 50 µM in assay [4] (setting [10]); more than 50 µM in assay [5].

For the compound `CCN(CC)c1ccc2cc(C(=O)/C=C/c3ccc(N(C)CCC(=O)[O][Pt]4([NH2])([NH2])([O]C(=O)Cc5cccc6c(=O)c7ccc(C)c(C)c7oc56)[O]C(=O)C5(CCC5)C(=O)[O]4)cc3)c(=O)oc2c1` [Complex 6], the IC50 in assay [1] (setting [6]) is more than 50 µM; in assay [1] (setting [7]), 11.4 ± 1.5 µM; in assay [2] (A2780cisR**, with irradiation), 12.7 ± 1.9 µM; in assay [2] (setting [8]) it was more than 50 µM; in assay [3] (A549**, with irradiation), 11.6 ± 1.2 µM; in assay [3] (setting [9]) it was more than 50 µM. For the same compound, the IC50 in assay [4] (A549cisR**, with irradiation) was 12.6 ± 2.1 µM; in assay [4] (setting [10]), more than 50 µM; in assay [5], more than 50 µM.
